Measurements taken from US20240247026A1, “SALTS AND CRYSTALLINE FORMS OF (3E) 3-[O-[(PHOSPHONOOXY)METHYL]OXIME]-PREGN-4-ENE-3,20-DIONE AND RELATED USES” (NeuroTrauma Sciences LLC, priority 2021, published 2024).
Entries after “also recorded” stand apart in the source; their conditions may differ.

What was measured:
[1] = Primary salt screen: XRPD re-analysis after drying at 40° C. and after storage at 40° C./75% RH; assay type: physicochemical; settings: for Remained pattern after 40° C.: dried at 40° C. for ca. two days; for Remained pattern after 40° C./78% RH: stored for ca. 24 h
Procedure: Salt crystallization screening was carried out as follows. Ca. […] The experiments were temperature cycled between ambient and 40° C. in 4 hour cycles for ca. 72 h. […] The solids were then isolated via centrifuge filter and analyzed by XRPD. Selected salts were dried at 40° ° C. for ca. two days and re-analyzed by XRPD. The salts were also characterized by TG/DSC and ^1H NMR.

[2] = One week (7-day) stability testing, HPLC purity and XRPD form; settings: for Loss in purity, one week stability: open vial
Procedure: After one week the solids were analyzed by XRPD for physical stability and HPLC for purity.
Seven day stability testing was carried out for Form III at 40° C./75% RH and ambient in open vials. 80° C. was carried out in an open 2 mL vial within a closed 20 mL vial.
The crystalline Bis-Sodium Pattern 3 material underwent 7-day stability tests at 40° C./75% RH (open vial); at ambient temperature, light and humidity (open vial) and 80° C. (sealed vial), with post-stability storage XRPD and HPLC analysis. The solubility of the bis-sodium pattern 3 salt was assessed.

[3] = Thermodynamic solubility studies in pH buffers; settings: shaken at ambient ca. 24 h
Procedure: Ca. 6 mg of the salt was weighed into a 2 mL vial and 50 μL aliquots of pH 7.4 PBS was added until dissolution was obtained. […] The preparations were analyzed by XRPD, PLM, TG/DSC, DSC, DVS, FTIR, ^1H and ^31P NMR and HPLC purity. One week stability testing was carried out, salt disproportionation and hydration studies and thermodynamic solubility.
Salt disproportionation and hydration studies were carried out as follows: Ca. 30 mg of each salt was suspended in 400 μL of the solvent systems shown in and shaken at ambient for ca. 24 h. Thermodynamic solubility studies were carried out as follows: Ca. 30 mg of each salt was suspended in 400 μL of the solvent systems shown in and shaken at ambient for ca. 24 h.

[4] = Dynamic vapour sorption (DVS); assay type: physicochemical
Procedure: Dynamic Vapour Sorption (DVS). Approximately 10-20 mg of sample was placed into a mesh vapour sorption balance pan and loaded into a DVS Advantage dynamic vapour sorption balance by Surface Measurement Systems. The sample was subjected to a ramping profile from 40-90% relative humidity (RH) at 10% increments, maintaining the sample at each step until a stable weight had been achieved (dm/dt 0.004%, minimum step length 30 minutes, maximum step length 500 minutes) at 25° C. After completion of the sorption cycle, the sample was dried using the same procedure to 0% RH and then a second sorption cycle back to 40% RH. Two cycles were performed. The weight change during the sorption/desorption cycles were plotted, allowing for the hygroscopic nature of the sample to be determined. XRPD analysis was then carried out on any solid retained.

[5] = Salt disproportionation and hydration studies; assay type: physicochemical; settings: ambient, ca. 24 h; for Hydration studies, outcome: 3 water activities; for Disproportionation experiment, outcome: water
[6] = 80° C., listed as N-(hydroxyethyl)pyrrolidine Pattern 2
[7] = listed as N-(hydroxyethyl)pyrrolidine Pattern 2

For NCCO [Ethanolamine], the “Remained pattern after 40° C.” value [1] was “Yes”.

For CC(=O)C1CCC2C3CCC4=CC(=NOCOP(=O)(O)O)CCC4(C)C3CCC12C.NC(CO)(CO)CO (stereo not shown) [Form III], the “XRPD form after one week stability” value ([2]; 80° C.) was “Form IV”.

With CC(=O)[C@H]1CC[C@H]2[C@@H]3CCC4=CC(=NOCOP(=O)(O)O)CC[C@]4(C)[C@H]3CC[C@]12C.OCCN1CCCC1.OCCN1CCCC1 [Form V] the “Loss in purity, one week stability” value ([2]; 40° C./75% RH) was “No loss in purity”, the “Loss in purity, one week stability” value ([2]; 40° C./75% RH, listed as N-(hydroxyethyl)pyrrolidine Pattern 2) was “No loss in purity at ambient” and the “Decrease in purity, one week stability” value ([2]; 80° C.) was 0.9 % Area. For the same molecule, the “XRPD form after one week stability” value ([2]; 80° C.) was “some minor changes”, the “Decrease in purity, one week stability” value [2, 6] was “& 40° C./75% RH. 0.9% Area” and the “XRPD form after one week stability” value [2, 6] was “minor changes at 80 °C”. For the same molecule, the “XRPD form after one week stability” value ([2]; all conditions tested) was “Form V remained; also recorded: remain unchanged”, the “XRPD form after one week stability” value ([2]; all conditions tested, listed as N-(hydroxyethyl)pyrrolidine Pattern 2) was “Remained Pattern 2, some” and the “Loss in purity, one week stability” value ([2]; ambient light and temperature) was “No loss in purity”. For the same molecule, the “Loss in purity, one week stability” value ([2]; ambient light and temperature, listed as N-(hydroxyethyl)pyrrolidine Pattern 2) was “No loss in purity at ambient”, the Solubility ([3]; pH 7.4) was over 45 mg/mL and the Solubility ([3]; pH 8) was over 39 mg/mL. The Solubility ([3]; pH 8.5) was over 39 mg/mL, the “Post DVS XRPD form” value [4] was “remain unchanged” and the DVS hygroscopic nature ([4]; 25° C.) was “hygroscopic”. The “DVS total uptake at 90% RH” value ([4]; 25° C.) was 19.0%, the “DVS total uptake at 90% RH as equivalents of water” value ([4]; 25° C.) was 7.3 equivalents of water and the “DVS uptake between 40% RH and 90% RH” value ([4]; 25° C.) was 17.8%. The “DVS uptake between 40% RH and 90% RH” value ([4]; 25° C., listed as N-(hydroxyethyl)pyrrolidine Pattern 2) was 17.8% uptake between 40 &, the “Remained pattern after 40° C.” value [1] was “Yes” and the “Remained pattern after 40° C./78% RH” value [1] was “Yes”. The “Hydration studies, outcome” value [5] was “Solutions were obtained; also recorded: no solids after 24 h”, the “Hydration studies, outcome” value [5, 7] was “Solutions obtained” and the “Disproportionation experiment, outcome” value [5] was “Solutions were obtained; also recorded: no solids after 24 h”. For the same molecule, the “Disproportionation experiment, outcome” value [5, 7] was “Solutions obtained”.

With CCNC[C@H](O)[C@@H](O)[C@H](O)[C@H](O)CO [N-ethyl glucamine] the “Remained pattern after 40° C.” value [1] was “Yes” and the “Remained pattern after 40° C./78% RH” value [1] was “No. Mixture”.

In the case of [K+] [Potassium], the “Remained pattern after 40° C.” value [1] is reported as “Yes”, the “Remained pattern after 40° C./78% RH” value [1] is reported as “No - Pattern 5” and the “Remained pattern after 40° C./78% RH” value ([1]; listed as potassium Pattern 1) is reported as “Pattern 5”.

In the case of CC(=O)[C@H]1CC[C@H]2[C@@H]3CCC4=CC(=NOCOP(=O)([O-])[O-])CC[C@]4(C)[C@H]3CC[C@]12C.[Na+].[Na+] [Sodium Pattern 3], the “Decrease in purity, one week stability” value ([2]; 80° C.) is reported as “Large drop in purity at 80 °C”, the “XRPD form after one week stability” value ([2]; 80° C.) is reported as 40° C./75% RH, Pattern 5 and the “Decrease in purity, one week stability” value ([2]; 80° C., listed as sodium salt Pattern 3) is reported as “large drop in purity”. For the same molecule, the “XRPD form after one week stability” value ([2]; all conditions tested) was “form conversion” and the Solubility ([3]; pH 7.4) was under 12 mg/mL at pH 7.4.
